Data from ChEMBL document CHEMBL1128521, “Partial GABAA receptor agonists. Synthesis and in vitro pharmacology of a series of nonannulated analogs of 4,5,6,7-tetrahydroisoxazolo[5,4-c]pyridin-3-ol” (J Med Chem, 1995).

Assays:
GABA B receptor = GABA B receptor (Rattus norvegicus, UniProt O88871+Q9Z0U4)
Rattus norvegicus = species on record: Rattus norvegicus; test: cells; assay type: functional, organism-based; conditions: Brain
[1] = molecular target: GABA-A receptor; anion channel
[2] = Reversal potential is determined electrophysiologically against the GABA A receptor; assay type: functional

Chain of GABA B receptor (Q9Z0U4 whole entry): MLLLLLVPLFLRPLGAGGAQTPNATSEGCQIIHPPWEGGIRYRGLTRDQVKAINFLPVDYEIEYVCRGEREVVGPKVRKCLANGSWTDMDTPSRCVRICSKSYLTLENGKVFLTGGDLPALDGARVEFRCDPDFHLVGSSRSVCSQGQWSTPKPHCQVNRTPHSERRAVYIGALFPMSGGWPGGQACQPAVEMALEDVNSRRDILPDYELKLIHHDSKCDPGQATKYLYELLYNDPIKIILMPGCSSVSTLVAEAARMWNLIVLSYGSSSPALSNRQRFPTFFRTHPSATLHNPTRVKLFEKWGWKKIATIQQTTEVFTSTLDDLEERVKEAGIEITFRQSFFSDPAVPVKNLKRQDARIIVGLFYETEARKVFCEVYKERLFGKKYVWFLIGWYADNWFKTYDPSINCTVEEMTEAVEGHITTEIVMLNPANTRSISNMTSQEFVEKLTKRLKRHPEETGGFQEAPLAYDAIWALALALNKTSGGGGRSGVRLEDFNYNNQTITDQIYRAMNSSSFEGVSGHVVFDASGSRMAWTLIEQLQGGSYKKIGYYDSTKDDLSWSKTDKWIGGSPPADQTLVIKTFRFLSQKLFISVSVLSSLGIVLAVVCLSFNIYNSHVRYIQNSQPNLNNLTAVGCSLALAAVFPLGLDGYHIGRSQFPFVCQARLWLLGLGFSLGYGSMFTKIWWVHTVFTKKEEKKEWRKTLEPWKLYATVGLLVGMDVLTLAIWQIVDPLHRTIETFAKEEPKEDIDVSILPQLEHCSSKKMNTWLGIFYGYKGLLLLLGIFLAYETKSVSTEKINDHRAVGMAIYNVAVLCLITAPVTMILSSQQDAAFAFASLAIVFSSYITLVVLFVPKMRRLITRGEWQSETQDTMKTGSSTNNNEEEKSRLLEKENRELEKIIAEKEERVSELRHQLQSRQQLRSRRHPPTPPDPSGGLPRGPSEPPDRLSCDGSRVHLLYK
Chain of GABA B receptor (O88871 whole entry): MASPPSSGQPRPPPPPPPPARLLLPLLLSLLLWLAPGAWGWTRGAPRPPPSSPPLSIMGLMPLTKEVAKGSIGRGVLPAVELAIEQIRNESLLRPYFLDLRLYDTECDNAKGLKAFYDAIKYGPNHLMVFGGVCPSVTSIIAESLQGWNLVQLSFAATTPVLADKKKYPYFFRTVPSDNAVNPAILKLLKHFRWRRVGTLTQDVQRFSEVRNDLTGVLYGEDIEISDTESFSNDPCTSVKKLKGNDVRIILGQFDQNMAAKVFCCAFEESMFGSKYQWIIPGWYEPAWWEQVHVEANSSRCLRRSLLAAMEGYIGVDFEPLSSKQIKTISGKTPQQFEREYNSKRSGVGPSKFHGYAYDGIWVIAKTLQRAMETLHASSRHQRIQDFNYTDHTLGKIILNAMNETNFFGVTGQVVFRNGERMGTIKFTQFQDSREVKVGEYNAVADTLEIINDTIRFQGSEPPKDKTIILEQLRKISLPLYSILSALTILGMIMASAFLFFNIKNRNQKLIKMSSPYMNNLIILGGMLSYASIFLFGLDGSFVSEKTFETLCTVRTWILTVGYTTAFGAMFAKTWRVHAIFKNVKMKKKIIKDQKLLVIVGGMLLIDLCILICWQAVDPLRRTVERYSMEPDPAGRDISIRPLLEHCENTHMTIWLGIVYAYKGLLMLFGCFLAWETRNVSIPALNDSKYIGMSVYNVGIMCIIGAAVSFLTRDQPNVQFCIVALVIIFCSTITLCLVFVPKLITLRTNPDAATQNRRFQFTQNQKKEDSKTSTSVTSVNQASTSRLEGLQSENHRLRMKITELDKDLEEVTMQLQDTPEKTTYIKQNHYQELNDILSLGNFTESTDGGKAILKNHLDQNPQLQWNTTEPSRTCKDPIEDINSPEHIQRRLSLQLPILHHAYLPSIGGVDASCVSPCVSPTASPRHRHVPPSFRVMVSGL
Description for physchem: PKa values of the compound

| Structure (SMILES) | IC50 (GABA B receptor) [µM] | IC50 (Rattus norvegicus) [µM] | IC50 [1] [µM] | Reverse potential [2] | pKa (physchem) |
| --- | --- | --- | --- | --- | --- |
| Oc1cc(C2CCNCC2)no1 | > 100 | > 300 | 26 | 4.3 |  |
| Oc1cc(C2CCNCC2)sn1 | > 100 | > 300 | 1.3 | 5.5 | 6.9 |
| Oc1cc(C2=CCNCC2)on1 | > 100 | > 300 | 32 | 5.6 | 5.1 |
| O=c1cc(C2=CCNCC2)s[nH]1 | > 100 |  |  |  |  |
| Oc1cc(C2CCNCC2)on1 |  | > 300 |  | 5.9 | 5.3 |
| O=C(O)/C=C/C1=CCNCC1 | > 100 | > 300 | > 100 |  |  |
| Oc1cc(C2=CCNCC2)sn1 |  | > 300 |  | 5.3 |  |
| O=C(O)C1=CCNCC1 [ISOGUVACINE] | > 100 | > 300 | 0.022 | 5.2 |  |
| O=C(O)CCC1=CCNCC1 | > 100 | > 300 | > 100 |  |  |
| O=C(O)/C=C/C1CCNCC1 | > 100 | > 300 | 52 |  |  |
| O=C(O)CCC1CCNCC1 | > 100 | > 300 | > 100 |  |  |
